Patent publication US12729368B2, “Methods and compositions for generating oligodendrocyte progenitor cells” (Trailhead Biosystems Inc., priority 2022, dated 2026)
Several values for one entry are separate records, joined by “and”; a condition that tells them apart may be missing. Equal entries are not always repeated.

Columns and labels:
[1] = test system: stage 2 early-OPCs; experiment: HD-DoE 8-factor model for stage 3 (version 1) on stage 2 early-OPCs; assay type: cell-based, human
Method: (§1) To further differentiate the cells to an oligodendrocyte progenitor identity, additional HD-DoE experiments were performed on the cells that were cultured in stage 1 and stage 2 differentiation media. After 3 days, gene expression of cells in different combinatorial conditions were investigated. At this time, we focused on maximal expression of signature oligodendrocyte progenitor genes such as SOX10, OLIG1 and PDGFRa (Goldman and Kuypers (2015) Development 142:3983-95; Marques et al. (2016) Science 352:1326-1329). In one 8-factor model, individual and combinatorial effects of LDN193189, SUN 11602, Activin A, Biotin, TTNPB, Isoproterenol, linoleic acid and T3+T4 were tested.
The same model was also optimized for maximum expression of PDGFRa at 3510.9. Two factor specifically, TTNPB and Linoleic acid determined the expression level of PDGFRa with factor contribution of 71.6 and 22.1, respectively (FIG. 17). […] The model was also optimized for highest expression of SOX10 at 18.8. In this optimization, TTNPB was the only input that could elevate the expression level of the selected gene (FIG. 18).
Dynamic profile analysis was utilized to explore combination sets that can optimize expression of all three selected genes. […] Since Activin A is the main compound regulating expression level of OLIG1, we investigated the changes in the plots after addition of Activin A and observed that expression level of SOX10 is still in the target range and PDGFRa is expressed at a high level too (2520).

[2] = test system: human pluripotent stem cells; experiment: HD-DoE #2: 13-factor model, differentiation toward anterior neuroectoderm, gene expression; assay type: cell-based; conditions: model optimized for highest expression of FEZF2 at 4466; positive
Description: To further enhance the conditions for oligodendrocyte differentiation from pluripotency, we performed an additional HD-DoE experiment. We obtained additional gene regulatory models that were used for preparation of a differentiation protocol. The basis of this was a 13-factor HD-DoE experiment with focus on initiation of differentiation of cells toward anterior neuroectoderm. In this model, we focused on expression of FEZF2 and OTX2.
As shown in the results summarized in FIG. 4, the model was optimized for highest expression of OTX2 at 12755.9. According to the model of high expression of OTX2, seven effectors had positive contribution including MK2206, PD0325901, CHIR99021, LDN193189, Go6983, PD173074 and BLU9931 with highest factor contribution of 22.2 for MK2206 and lowest factor contribution of 1.7 for PD173074 and BLU9931.
As shown in the results summarized in FIG. 5, the model was optimized for highest expression of FEZF2 at 4466. When the model was optimized for maximum expression level of FEZF2, three effectors including LDN193189 with factor contribution of 19.5, PD0325901 with factor contribution of 14.6 and MK2206 with factor contribution of 12.3 were common with previous condition and three new effectors including purmorphamine-500 nM, XAV939 and SC79 were introduced.
As shown in the results summarized in FIG. 6, to fine-tune the recipe and find the optimum combination of factors for high expression of both OTX2 and FEZF2, dynamic profiling analysis was done. […] Therefore, these two factors were added to the optimized culture recipe.

[3] = test system: stage 2 early-OPCs; experiment: HD-DoE 12-factor model for stage 3 (version 1) on stage 2 early-OPCs; assay type: cell-based, human
Method: In another model, the effects of Activin A and TTNPB along with LDN193189, MHY1485, PDGF-AA, AICAR, FGF2, CHIR99021, DBZ, MK2206, Purmorphamine and T3+T4 were tested on gene profile of differentiating cells. When this model was optimized for maximum expression of SOX10 at 54.7, we observed Activin A again had positive regulatory impact on its expression, with factor contribution of 4.7. Other positive factors included MK2206, with the highest factor contribution at 16.2, MHY1485 at 11.49, CHIR99021 at 9.6, DBZ at 9.3, FGF2 at 3.6 and PDGF-AA, with factor contribution less than 3 (FIG. 20).
In this model, we also investigated the conditions of expression of another important OPC gene, CSPG4 (Goldman and Kuypers (2015) Development 142:3983-95: van Tilborg et al. (2018) Glia 66:221-238).
Dynamic profile analysis was used to better assess the impact of the factors on our selected genes and find the combination set that can optimize their expression (FIG. 22). According to this analysis, even though Activin A has a positive effect on SOX10, it decreases level of PDGFRa and OLIG1. […] Moreover, SOX10 is one of the main transcription factors of oligodendrocytes, along with OLIG2 and NKX2-2, that has shown the potential to commit the stem cells to oligodendrocytes in reprogramming efforts (Wang et al. (2014) Proc Natl Acad Sci USA 111:E2885-94; Garciá-León et al. (2018) Stem Cell Reports 10:655-672). […] One of the main challenges of differentiating cells to oligodendrocyte fate is controlling the mixed population and increasing the purity of the culture by committing more cells to oligodendrocyte over neuronal identity. Therefore, DBZ was excluded from the final recipe.
At this point, we investigated the expression profile of a larger group of genes defining oligodendrocyte progenitor population at a later stage, including ID2, CNP and BCAN (Perlman et al. (2020). Glia 68:1291-1303; Goldman and Kuypers (2015) Development 142:3983-95). In this model, these genes were expressed at 1900, 660 and 44, respectively.

[4] = test system: human pluripotent stem cells; experiment: HD-DoE #1: 8-factor model, 3-day treatment of pluripotent stem cells, gene expression; assay type: cell-based; conditions: for factor contribution: positive effect; for impact on NKX2-2 and OLIG2 expression levels: dynamic profile, 8-factor model
Description: This example utilizes a method of High-Dimensional Design of Experiments (HD-DoE), as previously described in Bukys et al. (2020) Iscience 23:101346. The method employs computerized design geometries to simultaneously test multiple process inputs and offers mathematical modeling of a deep effector/response space. The method allows for finding combinatorial signaling inputs that control a complex process, such as during cell differentiation. It allows testing of multiple plausible critical process parameters, as such parameters impact output responses, such as gene expression. Because gene expression provides hallmark features of the phenotype of, for example, a human cell, the method can be applied to identify, and understand, which signaling pathways control cell fate. In the current example, the HD-DOE method was applied with the intent to find conditions for induction of oligodendrocyte progenitor-expressed genes, directly from the pluripotent stem cell state.
Specifically, to develop a novel method to generate oligodendrocytes, the impact of agonists and antagonists of multiple signaling pathways (herein called effectors) were tested on expression of two sets of 53 pre-selected genes after a 3-day treatment. These effectors are small molecules that are commonly used during stepwise differentiation of stem cells to specific fates. Choice of the effectors were based on current literature on neural induction in anterior ectoderm and differentiation of stem cells to oligodendrocytes.
To test the effectors, experiments with at least 8 factors were designed that can assess the response of cells to 48 or more different combinations of effectors in a range of concentrations. To analyze the models, we focused on expression of genes expressed during early development of anterior neuroectoderm and oligodendrocytes including NKX2-2, OLIG2, OLIG1, and PDGFRA. The impact of each effector on gene expression level is defined by a parameter called factor contribution that is calculated for each effector during the modeling.
This model tested 8 factors: PD0325901, MK2206, TTNPB, SC79, MHY1485, ZM336372, AGN193109 and AZD3147.

[5] = test system: pre-OPCs; experiment: HD-DoE 12-factor model for stage 2 (version 1), 3 days on stage 1 pre-OPCs; assay type: cell-based, human; conditions: optimized for maximum expression of OLIG2 at 1841.6
Description: To engineer the recipe of stage 2 of differentiation, cells were first cultured in the stage 1 media described in Example 1 and then treated with combinations of 8 or 12 factors for 3 days and the gene expression of cells in each condition was modeled. At this point, due to short duration of culture (only six days in vitro), we decided to focus on maximal expression of OLIG2 and maintenance of high expression of NKX2-2, while initiating expression of SOX10, OLIG1 and PDGFRa, to guide the cells towards oligodendrocyte fate (Emery and Lu (2015). Cold Spring Harb Perspect Biol. 7:a020461; Perlman et al. (2020). Glia 68:1291-1303; Goldman and. Kuypers (2015) Development 142:3983-95).
In one 12-factor model, the individual and combinatorial impact of SUN 11602 an agonist for FGF signaling pathway, FGF2, Activin A an activator of one of the receptors of TGF-b superfamily, A 8301, an inhibitor of TGF-b pathway, CHIR99021 a WNT activator, AGN193109 a RA antagonist, MK2206 an AKT inhibitor, Purmorphamine an agonist of SHH signaling pathway, AZD3147 an antagonist of mTOR pathway, MHY1485 an agonist of mTOR pathway, SC79 an agonist of AKT pathway and G06983 an inhibitor of PKC pathway, were tested.
Dynamic profile analysis was used to assess the expression levels of other genes of interests, such as NKX2-2, OLIG1 and SOX10, while the model is maximized for OLIG2. Activin A and SUN 11602 were brought down to zero due to their very low factor contribution. We observed when the model is optimized, the expression level of NKX2-2 is at 3000, PDGFRa at 1000, OLIG1 at 80 and SOX10 at 15 (FIG. 12).

[6] = test system: cells cultured in stage 1 and stage 2 differentiation media; experiment: HD-DoE 8-factor model for stage 3 (version 2); assay type: cell-based, human
Method: as §1, with “142:3983-95:” for “142:3983-95;”, “TTNPB (an RA agonist), CHIR99021, FGF-2, IGF-1, AGN193109, Purmorphamine, MHY1485 (a mTOR pathway agonist)” for “LDN193189, SUN 11602, Activin A, Biotin, TTNPB, Isoproterenol, linoleic acid”, “SC79 (an AKT pathway agonist)” for “T3+T4”, “tested to guide the cells toward a SOX10/PDGFRa positive population. […] CHIR99021 was also positive, with a factor contribution of 8.1 (FIG. 33).” for “tested.”
Other positive factors were IGF-1, with a factor contribution of 11.2, CHIR99021, with a factor contribution of 8.5 and TTNPB, with a factor contribution below 1 (FIG. 34).
To confirm the impact of TTNPB, FGF-2 and IGF-1 on a bigger scale, we investigated the expression profile of a larger group of genes defining late oligodendrocyte progenitor population, such as ID2, CSPG4, FYN, SOX8, PLP1 and BCAN (Perlman et al. (2020). Glia 68:1291-1303; Goldman and Kuypers (2015) Development 142:3983-95; van Tilborg et al. (2018) Glia 66:221-238) and neuronal genes such as NEUROD1, NEUROG1 and NEUROG2 in presence of IGF-1, FGF-2 or TTNPB.

[7] = optimized for maximum expression of OLIG1 at 256, positive impact
[8] = optimized for maximum expression of PDGFRa at 3510.9, positive
[9] = model optimized for maximum expression of NKX2-2
[10] = model optimized for maximum expression of PDGFRA

## c1ccc2c(-c3cnn4cc(-c5ccc(N6CCNCC6)cc5)cnc34)ccnc2c1 [LDN193189]
[1]; [7]
  factor contribution: 10.8
[2]
  factor contribution: 19.5
[3]; optimized for maximum expression of CSPG4 at 38.6, negative impact
  factor contribution: 16.9

## CCCCC/C=C\C/C=C\CCCCCCCC(=O)O [Linoleic acid]
[1]; [8]
  factor contribution: 22.1

## O=[N+]([O-])c1ccc(Nc2nc(N3CCOCC3)nc(N3CCOCC3)n2)cc1 [MHY1485]
[4]; [9]
  factor contribution: 13.8
[4]; [10]
  factor contribution: 13.4
[5]; negative impact
  factor contribution: 22.5
[3]; optimized for maximum expression of SOX10 at 54.7, positive
  factor contribution: 11.49 and 11.5

## O=C(NOC[C@H](O)CO)c1ccc(F)c(F)c1Nc1ccc(I)cc1F [PD0325901]
[4]
  impact on NKX2-2 and OLIG2 expression levels: negatively impacting
[4]; [10]
  factor contribution: 30.6 and 30.05
[2]
  factor contribution: 14.6

## CCOC(=O)C1=C(N)Oc2ccc(Cl)cc2C1C(C#N)C(=O)OCC (centres unmarked) [SC79]
[4]; [9]
  factor contribution: 1.47
[5]; positive regulatory effect
  factor contribution: 3.6
[6]; optimized for SOX10 at 41.04, negative impact
  factor contribution: 30.2

## Cc1c(C)c(NCC(=O)N(C)C2CCN(Cc3ccc(C(N)=O)cc3)CC2)c(C)c(C)c1N [SUN 11602]
[1]; [7]
  factor contribution: 3.7

## C/C(=C\c1ccc(C(=O)O)cc1)c1ccc2c(c1)C(C)(C)CCC2(C)C [TTNPB]
[1]; optimized for highest expression of SOX10 at 18.8, positive
  factor contribution: 8
[1]; [7]
  factor contribution: 19.11 and 19.1
[1]; [8]
  factor contribution: 71.6
[4]; [9]
  factor contribution: 31.3
[4]; [10]
  factor contribution: 49.01
[3]; optimized for maximum expression of CSPG4 at 38.6, positive
  factor contribution: 15.96 and 15.9
[6]; factor plots vs concentration
  effect on late OPC genes and neuronal genes: negative effect of TTNPB on OPC genes and its positive effect on neuronal genes
[6]; optimized for SOX10 at 41.04, positive
  factor contribution: 17.98
[6]; optimized for maximum expression of PDGFRa at 853.4, positive
  factor contribution: below 1

## Cc1ccc(NC(=O)c2cccc(N(C)C)c2)cc1NC(=O)c1ccc(O)cc1 [ZM336372]
[4]
  impact on NKX2-2 and OLIG2 expression levels: negatively impacting
[4]; [10]
  factor contribution: < 1
